Assays:
[1] = system: HN6; assay: MTS cytotoxicity assay, HN6 cells; type: cell-based; details: HN6, 72 h
Protocol: (§1) For CellTiter 96® Aqueous One Solution Cell Proliferation Assay (MTS) (Promega, Madison, WI, USA), cells were seeded at 5 × 10^3 per well in 96-well plates in quadruplicate together a control with no cells to evaluate the background. After 24 h, the culture medium was removed, and fresh medium containing increasing concentrations of chemical compounds was added to cells. The fixed final concentrations were 0.1 μM, 1 μM, 10 μM, and 100 μM. DMSO was the vehicle used for dilution of the compounds, and its final concentration on cells was less than 0.2%. Medium-only containing wells were included as controls. […] After 3 h at 37 °C in a humidified, 5% CO2 atmosphere, the absorbance at 492 nm was recorded using an EZREAD400 (Biochrom, Cambridge, United Kingdom) plate reader. The average 490 nm absorbance from the “no cell” control wells was subtracted from all other values to yield background-corrected absorbance. Dose–response curves and CC50 values have been calculated by plotting the absorbance data as a function of inhibitor concentrations and fitting the data by least-squares nonlinear regression, according to the method of Marquardt–Levenberg, with the computer program GraphPad Prism 6.0.
(§2) Cells were incubated with a scalar concentration of DDX3X inhibitors, and after 72 h of treatment, cell viability was assessed by cytotoxicity assay. […]

[2] = system: U87 cells xenograft; assay: Subcutaneous U87 xenograft model of GBM; type: in vivo, CD1 nude mice; details: 50 mg/kg i.p.
Protocol: Male CD1 nude mice (Charles River, Milan, Italy) were maintained under the guidelines established by our Institution (University of L’Aquila), complying with the Declaration of Helsinki, national and international laws and policies (European Economic Community Council Directive 86/609; Italian Legislative Decree 4.03.2014 n.26, Gazzetta Ufficiale della Repubblica Italiana no. 61, 4 March 2014). Before any invasive manipulation, mice were anesthetized with a mixture of ketamine (25 mg/mL)/xylazine (5 mg/mL). Tumor grafts were obtained by injecting s.c. 1 × 10^6 U87 cells in 100 µL of 12 mg/mL Matrigel (Becton Dickinson, Franklin Lakes, NJ, USA). Tumor growth was monitored daily by measuring the average tumor diameter, and mice were divided into experimental groups when the tumor reached a volume of approximately 50 mm^3. The tumor volume was calculated according to the formula 4/3πr^3, with r representing the […]. BA103 was administered i.p. in a saline solution containing 10% v/v DMSO and 10% v/v TWEEN 80. Each mouse received 50 mg/kg BA103, or vehicle, three times per week. Previous experiments with the same settings have permitted choosing the endpoint of 21 days considering the maximum mean volume of tumors in control mice that was compatible with no signs of distress. […]
Next, we tested our compound on U87 cells in a xenograft model of GBM. […] During the experiment, tumor growth was monitored measuring tumor volume, and at the end point, 21 days after the start point, mice were euthanized, and tumors were recovered and measured. […] Tumor masses were also analyzed for the expression of DDX3X, and all xenografts resulted positive for DDX3X expression, from both control and treated groups, with a spotted staining pattern (Figure 9D).
Figure 9 Biological activity of BA103 in xenograft models of GBM. […] Tumor growth was monitored by measuring tumor volume (B), and at the end point, tumors were weighed, and the resulting mean values for each group are reported in the histogram (C). […] Mice were monitored for two months after U87 cells inoculation.

[3] = system: A549, MDA-MB-231, HCT-116, U2OS, RD18, DBTRG, U87, U251 and DAOY cancer cell lines; assay: Cytotoxicity on additional cancer cell lines; type: cell-based; details: 72 h
Protocol: as §1, §2

Q: What does the source list for `CCCCc1cn(-c2ccc(NC(=O)Nc3ccccc3C(F)(F)F)cc2)nn1` [BA103, 1-(4-(4-Butyl-1H-1,2,3-triazol-1-yl)phenyl)-3-(2-(trifluoromethyl)phenyl)urea]?
A: CC50 [1]: low micromolar range; tumor growth (tumor volume) vs control ([2]; from the second week): reduction in tumor growth was evident; reduction of mean tumor mass with respect to control group ([2]; three times per week for two weeks, end point 21 days): ~60%; signs of distress in the receiving animal ([2]; two consecutive weeks): absence of any visible sign of distress; CC50s against the additional cell lines [3]: micromolar CC50s

Source: paper PMC8582824, “Targeting DDX3X Helicase Activity with BA103 Shows Promising Therapeutic Effects in Preclinical Glioblastoma Models” (Cancers, 2021)
